ChEMBL document CHEMBL1201862, “PubChem BioAssay data set” (2004)
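Briefly, cells in 96-well plates were exposed to five compound concentrations for 48 h, and endpoints were estimated by linear interpolation. Abbreviation: GI50, concentration required for 50% inhibition of growth.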 The source made the active and inactive calls. Cut-off read from the data, not from the text of the source: active = GI50 up to about 1.1 µM and inactive = higher.

Key:
Test in all cases: inhibition of tumour cell growth, NCI panel, 48 h
HOP-62 = test system: HOP-62
OVCAR-5 = test system: OVCAR-5
A498 = test system: A498
SK-MEL-2 = test system: SK-MEL-2
OVCAR-8 = test system: OVCAR-8
CCRF-CEM = test system: CCRF-CEM
Malme-3M = test system: Malme-3M
IGROV-1 = test system: IGROV-1
EKVX = test system: EKVX
MOLT-4 = test system: MOLT-4
OVCAR-4 = test system: OVCAR-4
SF-295 = test system: SF-295
HL-60 = test system: HL-60
786-0 = test system: 786-0
SK-MEL-28 = test system: SK-MEL-28
SR = test system: SR
LOX IMVI = test system: LOX IMVI
HOP-92 = test system: HOP-92

| SMILES | GI50 (HOP-62) | GI50 (OVCAR-5) | GI50 (A498) | GI50 (SK-MEL-2) | GI50 (OVCAR-8) | GI50 (CCRF-CEM) | GI50 (Malme-3M) | GI50 (IGROV-1) | GI50 (EKVX) | GI50 (MOLT-4) | GI50 (OVCAR-4) | GI50 (SF-295) | GI50 (HL-60) | GI50 (786-0) | GI50 (SK-MEL-28) | GI50 (SR) | GI50 (LOX IMVI) | GI50 (HOP-92) |
| --- | --- | --- | --- | --- | --- | --- | --- | --- | --- | --- | --- | --- | --- | --- | --- | --- | --- | --- |
| O=C(CC1(O)C(=O)Nc2ccc(Br)cc21)c1ccc(Cl)cc1Cl (stereo not drawn) | 83.6 µM (inactive) | > 100 µM (inactive) | > 100 µM (inactive) | 31.7 µM (inactive) | 47.9 µM (inactive) | 20.2 µM (inactive) | 63.7 µM (inactive) | 51.4 µM (inactive) | > 100 µM (inactive) | 26.3 µM (inactive) | 36.1 µM (inactive) | 64.7 µM (inactive) | 19.1 µM (inactive) | 87.1 µM (inactive) | 44 µM (inactive) | 23.7 µM (inactive) | – | – |
| CNS(=O)(=O)NN(C)S(=O)(=O)c1ccc2ccccc2c1 | > 100 µM (inactive) | – | > 100 µM (inactive) | > 100 µM (inactive) | > 100 µM (inactive) | > 100 µM (inactive) | > 100 µM (inactive) | > 100 µM (inactive) | > 100 µM (inactive) | > 100 µM (inactive) | > 100 µM (inactive) | > 100 µM (inactive) | > 100 µM (inactive) | > 100 µM (inactive) | – | > 100 µM (inactive) | > 100 µM (inactive) | – |
| CCCC(=O)N[C@@H](Cc1cc(I)c(O)c(I)c1)C(=O)NCCCNCCCCNCCCNC(=O)[C@@H](N)CCCN=C(N)N | 33.8 µM (inactive) | – | – | – | > 100 µM (inactive) | > 100 µM (inactive) | > 100 µM (inactive) | 29 µM (inactive) | > 100 µM (inactive) | 71.6 µM (inactive) | – | > 10 µM (inactive) | 33.7 µM (inactive) | 73.3 µM (inactive) | 50.4 µM (inactive) | > 100 µM (inactive) | 94 µM (inactive) | – |
| O=C1CCCC/C1=C1\C(=O)Nc2cc(F)ccc21 | > 100 µM (inactive) | > 100 µM (inactive) | > 100 µM (inactive) | > 100 µM (inactive) | > 100 µM (inactive) | > 100 µM (inactive) | > 100 µM (inactive) | > 100 µM (inactive) | > 100 µM (inactive) | > 100 µM (inactive) | > 100 µM (inactive) | > 100 µM (inactive) | > 100 µM (inactive) | > 100 µM (inactive) | > 100 µM (inactive) | – | > 100 µM (inactive) | > 100 µM (inactive) |
| COc1ccc(CN2CC(C)(C)C2=O)c(OC)c1 | > 100 µM (inactive) | – | > 100 µM (inactive) | > 100 µM (inactive) | > 100 µM (inactive) | > 100 µM (inactive) | > 100 µM (inactive) | > 100 µM (inactive) | > 100 µM (inactive) | > 100 µM (inactive) | > 100 µM (inactive) | > 100 µM (inactive) | > 100 µM (inactive) | > 100 µM (inactive) | > 100 µM (inactive) | – | > 100 µM (inactive) | > 100 µM (inactive) |
| CC(=O)CC(=O)ON(C)C(C)=O | > 100 µM (inactive) | > 100 µM (inactive) | – | – | > 100 µM (inactive) | > 100 µM (inactive) | > 100 µM (inactive) | > 100 µM (inactive) | – | > 100 µM (inactive) | 29.2 µM (inactive) | > 100 µM (inactive) | > 100 µM (inactive) | > 100 µM (inactive) | > 100 µM (inactive) | > 100 µM (inactive) | > 100 µM (inactive) | – |
| O=C(CC(=O)C1CCOC1=O)C(=O)Nc1ccc(Cl)cc1 (stereo not drawn) | > 100 µM (inactive) | > 100 µM (inactive) | > 100 µM (inactive) | > 100 µM (inactive) | > 100 µM (inactive) | > 100 µM (inactive) | > 100 µM (inactive) | > 100 µM (inactive) | > 100 µM (inactive) | – | > 100 µM (inactive) | > 100 µM (inactive) | > 100 µM (inactive) | > 100 µM (inactive) | > 100 µM (inactive) | – | > 100 µM (inactive) | > 100 µM (inactive) |
| O=C1/C(=C/c2ccccc2)CN(C(=O)OCC(Cl)(Cl)Cl)C/C1=C\c1ccccc1 | – | 5.52 µM (inactive) | 2 µM (inactive) | 4.89 µM (inactive) | 1.76 µM (inactive) | 1.71 µM (inactive) | 3.2 µM (inactive) | 3.54 µM (inactive) | > 10 µM (inactive) | 2.51 µM (inactive) | – | 1.83 µM (inactive) | 0.897 µM (active) | 2.14 µM (inactive) | 1.66 µM (inactive) | 2.07 µM (inactive) | 0.792 µM (active) | – |
| CN(/C(=N\O)c1ccccc1)c1ccccc1 | 22.9 µM (inactive) | 88.9 µM (inactive) | – | 27.8 µM (inactive) | 24.8 µM (inactive) | – | 39.1 µM (inactive) | – | 23.3 µM (inactive) | – | 33.7 µM (inactive) | 21 µM (inactive) | 19.7 µM (inactive) | 21.7 µM (inactive) | – | 25 µM (inactive) | 22.6 µM (inactive) | 5.12 µM (inactive) |
| Cn1c(=O)c(C(=O)NC23CC4CC(CC(C4)C2)C3)c(O)c2ccccc21 | 21.8 µM (inactive) | – | – | – | 23.3 µM (inactive) | > 100 µM (inactive) | 21.2 µM (inactive) | 31.8 µM (inactive) | 31.5 µM (inactive) | > 100 µM (inactive) | – | 18.5 µM (inactive) | 25.1 µM (inactive) | 14.3 µM (inactive) | 37.7 µM (inactive) | > 100 µM (inactive) | 43.4 µM (inactive) | – |
| CCOc1ccc(NC(=O)CC2SC(Nc3ccc(C)cc3)=NC2=O)cc1 (stereo not drawn) | > 100 µM (inactive) | > 100 µM (inactive) | > 100 µM (inactive) | – | > 100 µM (inactive) | 29.2 µM (inactive) | > 100 µM (inactive) | > 100 µM (inactive) | > 100 µM (inactive) | 35.2 µM (inactive) | > 100 µM (inactive) | > 100 µM (inactive) | – | > 100 µM (inactive) | > 100 µM (inactive) | 50.9 µM (inactive) | > 100 µM (inactive) | – |
| Nc1ncnc2c1N=CN(Oc1ccccc1)N2 | – | > 100 µM (inactive) | – | > 100 µM (inactive) | > 100 µM (inactive) | – | 18.3 µM (inactive) | > 100 µM (inactive) | > 100 µM (inactive) | > 100 µM (inactive) | > 100 µM (inactive) | > 100 µM (inactive) | – | > 100 µM (inactive) | > 100 µM (inactive) | > 100 µM (inactive) | – | > 100 µM (inactive) |
| O=C1OC(O)C(Oc2ccc(Cl)cc2)=C1Cl (stereo not drawn) | > 100 µM (inactive) | > 100 µM (inactive) | > 100 µM (inactive) | > 100 µM (inactive) | > 100 µM (inactive) | > 100 µM (inactive) | > 100 µM (inactive) | > 100 µM (inactive) | > 100 µM (inactive) | > 100 µM (inactive) | > 100 µM (inactive) | > 100 µM (inactive) | > 100 µM (inactive) | > 100 µM (inactive) | > 100 µM (inactive) | – | > 100 µM (inactive) | > 100 µM (inactive) |
